Earlier results, collected in patent US20220308074A1, “QUANTIFICATION METHOD OF VITAMIN D DERIVATIVE, ENZYME FOR QUANTIFICATION, COMPOSITION FOR QUANTIFICATION, KIT FOR QUANTIFICATION, ELECTRODE, SENSOR CHIP, AND SENSOR” (KIKKOMAN CORPORATION, priority 2019, published 2022).
Like-named read-outs stand apart in the source and are kept apart here.

Substance	half-life in the blood (blood)	half-life in the blood (in vivo)
1,25-dihydroxyvitamin D	about 15 hours	–
25-hydroxyvitamin D	–	2-3 weeks
